Laboratory results as given in patent EP0410147B1.

System: HRV2-2A
Format: biochemical
Conditions: for Spaltung des Peptidsubstrats in trans durch HRV2-2A: 30 min 37°C

Substance | Spaltung des Peptidsubstrats in trans durch HRV2-2A | Spaltung des Peptidsubstrats [%] | Spaltung des Peptidsubstrats durch HRV2-2A in Anwesenheit von 2,5 M NaCl
Ac-TRPIITTAGPSDMYVH-NH2 [Peptid H, Ac-TRPIITTAGPSDMYVH-NH₂] | spezifisch zwischen Alanin und Glycin |  | 
TRPIITTYGPSDMYVH [Peptid K, Peptidsubstrat mit Spaltsignal Tyr/Gly statt Ala/Gly] | mit der gleichen Effizienz wie die nativen Peptidsubstrate vergleichbarer Länge von HRV2-2A gespalten | 100 | vollständige Spaltung
